Consider five molecules from paper PMC7179274, “6′-β-Fluoro-Homoaristeromycin and 6′-Fluoro-Homoneplanocin A Are Potent Inhibitors of Chikungunya Virus Replication through Their Direct Effect on Viral Nonstructural Protein 1” (Antimicrobial Agents and Chemotherapy, 2020).

One series concerns SFV. The experiment in a line: CPE reduction assay, SFV.
Another series deals with VeroE6 cells. The experiment in a line: Cytotoxicity in uninfected cells (MTS/PMS) of the CPE reduction assay.
For a further series, the system named is rCHIKV mutants. The series is described as follows: microbe, parasite or virus in culture. The settings on record: for Fold resistance: EC50 mutant/EC50 wt. The format is cell-based, Chikungunya virus.
The subject of another series is SINV. The series is described as follows: CPE reduction assay, SINV. Particulars: VeroE6 cells, MOI 0.025.
Another series has as its system CHIKV. The series is described as follows: CPE reduction assay, CHIKV.
For series [1], the target named is host enzyme SAH hydrolase. Also noted: method as in PMID 26010585. Particulars: in vitro; read-out: 50% inhibitory concentration, SAH hydrolase; cited from earlier work.
For the next series, the target named is T1, wt SFV nsP1 (Semliki forest virus, UniProt P08411).
T1 sequence (P08411 1-537): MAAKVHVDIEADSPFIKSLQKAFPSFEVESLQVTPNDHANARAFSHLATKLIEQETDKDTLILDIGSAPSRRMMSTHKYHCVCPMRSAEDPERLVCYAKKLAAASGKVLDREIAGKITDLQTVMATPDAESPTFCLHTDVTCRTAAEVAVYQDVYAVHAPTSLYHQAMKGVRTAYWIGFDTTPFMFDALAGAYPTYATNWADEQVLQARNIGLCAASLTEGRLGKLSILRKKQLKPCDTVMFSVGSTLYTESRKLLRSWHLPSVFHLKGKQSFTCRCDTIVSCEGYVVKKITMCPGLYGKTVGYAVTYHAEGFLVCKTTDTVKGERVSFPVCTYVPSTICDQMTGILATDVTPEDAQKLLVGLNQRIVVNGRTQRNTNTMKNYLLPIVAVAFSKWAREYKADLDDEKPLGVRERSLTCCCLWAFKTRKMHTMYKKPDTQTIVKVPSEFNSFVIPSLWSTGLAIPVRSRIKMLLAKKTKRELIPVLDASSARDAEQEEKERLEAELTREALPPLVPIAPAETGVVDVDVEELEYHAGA
The experiment in a line: nsP1 enzymatic activity assay (m7GMP-nsP1 intermediate formation), wt.

For another series, the target named is T2, SFV nsP1 K231R+K300E (Semliki forest virus, UniProt P08411, K231R/K300E).
T2 sequence (P08411 1-537 K231R/K300E): T1 sequence (P08411 1-537) with K231R, K300E
Type of series: biochemical. Particulars: 0 to 1 mM, 10 μM SAM, normalized to untreated control.

[2] abbreviates: Chikungunya virus, Vero C1008, read-out: Mean EC50 ± SD.
The mark [3] stands for this setting: Chikungunya virus, read-out: Mean EC50 ± SD.
The mark [4] stands for this setting: rCHIKV nsP1-G230R + nsP1-K299E + nsP3-*524R.
Setting [5] is: rCHIKV nsP1-G230R + nsP1-K299E + nsP3-*524R, read-out: Mean EC50 ± SD.
[6] abbreviates: rCHIKV nsP1-G230R + nsP1-K299E, read-out: Mean EC50 ± SD.
Setting [7] is: rCHIKV nsP1-R171Q, read-out: Mean EC50 ± SD.

Positions count from the first letter of the chain named. “Also recorded” adds a separate entry of the source. Read-outs that look alike come from different tables or passages of the source.

For 6′-β-fluoro-homoaristeromycin [FHA], the “SI (SFV)” value in the series on SFV (CC50/EC50) is recorded as >64. Moreover, the EC50 (commonly the concentration giving half of the maximal effect) with SFV (read-out: EC50 (SFV), VeroE6 cells, MOI 0.025, MTS at 40 hpi, mean ± SD) was 3900 ± 3500 nM; in the series on CHIKV (read-out: EC50 (CHIKV), VeroE6 cells, MOI 0.005, MTS at 96 hpi, mean ± SD), 120 ± 40 nM. The CC50 (as a rule, the concentration that lowers cell viability or growth by half) with VeroE6 cells (read-out: CC50 (CHIKV assay), CHIKV assay format) is > 250000 nM; in the series on VeroE6 cells (read-out: CC50 (SFV assay), SFV assay format) it was > 250000 nM; with VeroE6 cells (read-out: CC50 (SINV assay), SINV assay format), > 250000 nM. In addition, the “Resistance of rCHIKV G230R+K299E to the compound” value with rCHIKV mutants (rCHIKV G230R+K299E) is reported as “resistant”. The “Protection against SINV infection” value with SINV is listed as “did not confer protection”. In the series on CHIKV (CC50/EC50), the “SI (CHIKV)” value is reported as >1,000. Besides, the IC50 in series [1] was 370 nM.
For `O=c1cnn([C@@H]2O[C@H](CO)[C@@H](O)[C@H]2O)c(=O)[nH]1` [6-Azauridine, 6-azauridine, reference compound], the EC50 came to 300 ± 10 nM with rCHIKV mutants (setting [2]); 8900 ± 3400 nM in the series with rCHIKV mutants (setting [3]); 900 ± 100 nM in the series with rCHIKV mutants (setting [5]); 1100 ± 100 nM in the series with rCHIKV mutants (setting [6]); 800 ± 100 nM in the series with rCHIKV mutants (setting [7]). Also, the Fold resistance in the series with rCHIKV mutants (setting [4]) is listed as 4; in the series with rCHIKV mutants (rCHIKV nsP1-G230R + nsP1-K299E) it was 4; in the series with rCHIKV mutants (rCHIKV nsP1-R171Q), 3.
As for `CCc1nc2c(nnn2-c2cccc(OC(C)C)c2)c(=O)[nH]1` [MADTP-372, reference compound], the “Effect on formation of m7GMP-nsP1 intermediate (control compound)” value at wt SFV nsP1 (50 μM, 5 or 10 μM SAM) was “clearly inhibited the reaction”.
As for `COc1c(C)c2c(c(O)c1C/C=C(\C)CCC(=O)O)C(=O)OC2` [Mycophenolic acid, mycophenolic acid, reference compound], the half-maximal effective concentration (EC50) in the series with rCHIKV mutants (setting [2]) amounted to 400 ± 10 nM; with rCHIKV mutants (setting [3]), 6300 ± 11400 nM; in the series with rCHIKV mutants (setting [5]) it was 500 ± 30 nM; in the series with rCHIKV mutants (setting [6]), 1100 ± 500 nM; with rCHIKV mutants (setting [7]), 4200 ± 2800 nM. For the same molecule, the Fold resistance in the series with rCHIKV mutants (setting [4]) worked out at 1; in the series with rCHIKV mutants (rCHIKV nsP1-G230R + nsP1-K299E), 3; with rCHIKV mutants (rCHIKV nsP1-R171Q), 11.
Turning to `Nc1ncnc2c1ncn2[C@@H]1O[C@H](CSCC[C@H](N)C(=O)O)[C@@H](O)[C@H]1O` [SAH, S-adenosylhomocysteine, reference compound], the “Inhibition of m7GMP-nsP1 formation, dose response” value at wt SFV nsP1 (0 to 1 mM, 10 μM SAM) is recorded as “inhibited in a dose-dependent manner”. The “Inhibition of m7GMP-nsP1 formation” value at wt SFV nsP1 (1 mM, 100-fold molar excess over SAM (10 μM SAM)) was “fully inhibited”. Also, at SFV nsP1 K231R+K300E, the “Inhibition of mutant compared to wt SFV nsP1” value is “inhibited by SAH to a similar extent; also recorded: inhibited by SAH to the same extent”.
